# According to patent publication US20080008707A1, “Denatured collagen peptides and uses thereof” (Cell-Matrix, Inc., priority 2006, published 2008):
# Square brackets hold non-standard residues; d marks the D form. Ends that are not written are not given here. Hyp = O=C(O)[C@@H]1C[C@@H](O)CN1
# Key:
# [1] = tested on: D93 binding to human denatured-collagen IV; experiment: Competition ELISA: synthetic peptides blocking D93 binding to heat denatured collagen IV
# Method: (§1) The ELISA was conducted as follows: wells of a 96-well microtiter plate (Immulon, 4 HBX flat-bottomed, Thermo Electron Corporation, Waltham, Mass.) were coated with 100 μL/well of dn-collagen IV at 10 μg/mL in Phosphate Buffered Saline (PBS) overnight at 4° C. The plate was washed 3 times (3×) with PBS containing 0.05% (v/v) Tween-20 (PBST) using an automated plate washer.
# (§2) The plate was blocked by adding 300 μL/well of 1% BSA (w/v) in PBS for 1 hour at 25° C. followed by washing 3× in PBST as above.
# (§3) Solutions of D93 or HUI77 were prepared with various concentrations of peptide or antibody inhibitor and incubate for 15 minutes. D93 or HUI77 was prepared at 200 ng/mL in 1% BSA/PBS.
# (§4) For antibody blocking studies using synthetic peptides: peptide inhibitor stock solutions were prepared at 2 mM, 0.2 mM, 0.02 mM, and 0.002 mM in 1% BSA/PBS. 500 μL of a 2 mM peptide solution in 1% BSA/PBS was prepared and diluted 1:10 in 500 μL a total of three times to make peptide inhibitor concentrations.
# (§5) 200 μL of D93 or HUI77 at 200 ng/mL solution was combined with 200 μL of peptide or antibody inhibitor solution and incubated for 15 minutes at room temperature.
# (§6) D93 or HUI77 with various concentrations of inhibitors (2 mM, 0.2 mM, 0.02 mM, and 0.002 mM) were added to microplate wells and incubated for 1 hour at 25° C. The plate was washed 3× in PBST as above.
# (§7) To each microtiter plate well, 100 μL of diluted anti-human IgG or anti-mouse IgM conjugated to horseradish peroxidase (HRP) in PBST was added and incubated for one hour at 25° C.: (a) for D93: Goat anti-human IgG-HRP (Jackson ImmunoResearch, Catalog No. 109-035-088) was used at 1:20,000 and (b) for HUI77: Goat anti-mouse IgM-HRP was used at 1:4,000. Plates were washed 3× in PBST as above.
# (§8) Tetramethylbenzidine (TMB) substrate (100 μL; Pierce Chemicals)) was added to wells and the plates were allowed to develop at room temperature for 15 minutes in the dark. Substrate development was stopped by adding 50 μL/well of 2N H2SO4. The microtiter […] plates were read at 450 nm within five minutes of adding the H2SO4. Reactivity was measured with a microplate reader (Molecular Devices, Sunnyvale, Calif.) at a wavelength of 450 nm and analyzed using SOFTMax® PRO4.0 (Molecular Devices). All samples were tested in triplicate.
# (§9) Individual peptides with amino acid substitutions and deletions were also synthesized based on the primary and secondary peptide arrays. […] The inhibitory activity of the individual peptides was tested by ELISA as previously described to measure binding of D93 or HUI77 to denatured collagen where peptides and antibodies were prepared at a 2× concentration and pre-incubated for 15 minutes prior to adding to microtiter plates coated with dn-collagen.
# (§10) 96-well plates were coated with 100 μL/well of denatured (dn) collagen IV at 10 μg/mL in phosphate buffered saline (PBS) overnight at 4° C. followed by washing the plates in an automated plate washer 3 times in PBS containing 0.05% (v/v) Tween-20 (PBST). Non-specific binding was prevented by blocking the wells by adding 300 μL/well of 1% bovine serum albumin (BSA) (w/v) in PBS for 1 hour (hr) at 25° C. The plates were washed as above.
# (§11) Solutions of D93 and HUI77 antibodies were prepared with various concentrations of inhibitor and incubated for 15 minutes. Briefly, 20 mLs of D93 or HUI77 were prepared at 200 ng/mL in 1% BSA/PBS. Solutions of peptide inhibitors (2 mM, 0.2 mM, […]) were prepared in 1% BSA/PBS. Equal volumes of antibodies and peptide inhibitors were combined: 200 μL of D93 or HUI77 (200 ng/mL solution) with 200 μL of each peptide solution.
# (§12) 100 μL/well of D93 or HUI77 at 100 ng/mL with various concentrations of inhibitors were added to the wells in triplicate and incubated for 1 hour at 25° C. The plates were washed as described above.
# (§13) 100 μL/well of secondary horseradish peroxidase (HRP)-conjugated antibody in PBST was added to each well and incubated for 1 hour (hr) at 25° C. […]
# [2] = tested on: HUI77 binding to denatured collagen IV; experiment: Competition ELISA: synthetic peptides blocking HUI77 binding to heat denatured collagen IV; design: species or system human
# Method: as §1, §2, §3, §4, §5, §6, §7, §8, §9, §10, §11, §12, §13
# [3] = peptide inhibitor concentration 1 μM, average of two studies, vs 1% BSA/PBS alone
# [4] = peptide inhibitor concentration 10 μM, average of two studies, vs 1% BSA/PBS alone
# [5] = peptide inhibitor concentration 100 μM, average of two studies, vs 1% BSA/PBS alone
# [6] = peptide inhibitor concentration 1000 μM, asterisk (*): data from a separate assay
# [7] = peptide inhibitor concentration 1000 μM, average of two studies, vs 1% BSA/PBS alone
# [8] = peptide inhibitor concentration 10 μM, average of two studies
# [9] = peptide inhibitor concentration 100 μM, average of two studies
# [10] = peptide inhibitor concentration 1000 μM, average of two studies
Substance,"% INHIBITION OF BINDING OF D93 TO HUMAN DENATURED-COLLAGEN IV [1, 3] [%]","% INHIBITION OF BINDING OF D93 TO HUMAN DENATURED-COLLAGEN IV [1, 4] [%]","% INHIBITION OF BINDING OF D93 TO HUMAN DENATURED-COLLAGEN IV [1, 5] [%]","% INHIBITION OF BINDING OF D93 TO HUMAN DENATURED-COLLAGEN IV [1, 6] [%]","% INHIBITION OF BINDING OF D93 TO HUMAN DENATURED-COLLAGEN IV [1, 7] [%]","% INHIBITION OF BINDING OF HUI77 TO DENATURED COLLAGEN IV [2, 8] [%]","% INHIBITION OF BINDING OF HUI77 TO DENATURED COLLAGEN IV [2, 9] [%]","% INHIBITION OF BINDING OF HUI77 TO DENATURED COLLAGEN IV [2, 6] [%]","% INHIBITION OF BINDING OF HUI77 TO DENATURED COLLAGEN IV [2, 10] [%]","% INHIBITION OF BINDING OF D93 TO HUMAN DENATURED-COLLAGEN IV ([1]; peptide inhibitor concentration 1 μM, average of two studies, vs 1% BSA/PBS alone, listed as 20 (21), 1 µM) [%]","% INHIBITION OF BINDING OF D93 TO HUMAN DENATURED-COLLAGEN IV ([1]; peptide inhibitor concentration 10 μM, average of two studies, vs 1% BSA/PBS alone, listed as 20 (21), 10 µM) [%]","% INHIBITION OF BINDING OF D93 TO HUMAN DENATURED-COLLAGEN IV ([1]; peptide inhibitor concentration 100 μM, average of two studies, vs 1% BSA/PBS alone, listed as 20 (21), 100 µM) [%]","% INHIBITION OF BINDING OF D93 TO HUMAN DENATURED-COLLAGEN IV ([1]; peptide inhibitor concentration 1000 μM, average of two studies, vs 1% BSA/PBS alone, listed as 20 (21), 1000 µM) [%]","% INHIBITION OF BINDING OF HUI77 TO DENATURED COLLAGEN IV ([2]; peptide inhibitor concentration 100 μM, average of two studies, listed as 20 (21), 100 µM) [%]","% INHIBITION OF BINDING OF HUI77 TO DENATURED COLLAGEN IV ([2]; peptide inhibitor concentration 1000 μM, average of two studies, listed as 20 (21), 1000 µM) [%]"
"CTWPRHHTTDALL [SEQ ID NO: 39, reference compound]",4.5,1,0,4.9,3.5,6.5,6.5,11.1,6.5,–,–,–,–,–,–
PGAKGLPGP ([Hyp]GAKGLPGP) [SEQ ID NO: 17],11,6,4,–,11.5,8,10.5,–,10,–,–,–,–,–,–
L-Hyp-G-P-Hyp-G (L[Hyp]GP[Hyp]G) [SEQ ID NO: 24],6.5,12,52.5,–,90,3,8,–,64,–,–,–,–,–,–
LPGPPGPPG (LPGP[Hyp]GP[Hyp]G) [SEQ ID NO: 21],–,–,–,–,–,6.5,–,–,–,13,35.5,85.5,92.5,18,86
GPPG [SEQ ID NO: 35],7,6,3.5,–,7.5,2.5,8,–,3.5,–,–,–,–,–,–
GPPGPPGP (GPXGPXGP; MOD_RES (3) Hydroxyproline; MOD_RES (6) Hydroxyproline) [SEQ ID NO: 31],9.5,21,77,–,92.5,7.5,12,–,44,–,–,–,–,–,–
LPGTPG (L[Hyp]GT[Hyp]G) [SEQ ID NO: 27],7,2,4.5,–,24,3.5,4.5,–,6,–,–,–,–,–,–
